Source: PMC6271944 (Molecules, 2014)

Experiments:
Type in all cases: in vitro ADME
[1] = molecular target: T1, CYP3A4 (Homo sapiens, UniProt P08684); assay: CYP inhibition in human liver microsomes, substrate cocktail, LC-MS/MS (midazolam); conditions: metabolite 1-hydroxymidazolam, read-out: IC50 for HLM, CYP3A4
T1 construct: Pooled human liver microsomes (HLM, LOT 32556) were purchased from BD Gentest Corporation; tissue BD Gentest Corporation LOT 32556; host or cells: pooled human liver microsomes
T1 sequence (P08684 whole entry): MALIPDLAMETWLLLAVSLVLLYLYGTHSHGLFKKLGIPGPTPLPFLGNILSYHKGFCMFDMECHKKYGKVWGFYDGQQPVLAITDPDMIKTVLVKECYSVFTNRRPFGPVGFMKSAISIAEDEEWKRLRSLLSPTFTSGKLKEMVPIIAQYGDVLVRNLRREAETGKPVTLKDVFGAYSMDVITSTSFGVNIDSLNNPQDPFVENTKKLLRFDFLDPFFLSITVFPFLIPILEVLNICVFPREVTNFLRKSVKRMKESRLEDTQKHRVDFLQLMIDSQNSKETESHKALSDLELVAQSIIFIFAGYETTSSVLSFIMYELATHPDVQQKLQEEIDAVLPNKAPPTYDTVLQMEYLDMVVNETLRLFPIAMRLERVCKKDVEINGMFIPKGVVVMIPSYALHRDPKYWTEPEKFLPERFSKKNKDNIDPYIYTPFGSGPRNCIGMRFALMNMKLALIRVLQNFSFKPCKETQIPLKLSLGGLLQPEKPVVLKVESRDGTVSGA
Source text: (§1) Positive controls (furafyline for CYP1A2, montelukast for CYP2C8, sulfaphenazole for CYP2C9, S-(+)-N-3-benzylnirvanol for CYP2C19, quinidine for CYP2D6, ketoconazole for CYP3A4) and specific substrates (phenacetin for CYP1A2, paclitaxel for CYP2C8, diclofenac for CYP2C9, S-mephenytoin for CYP2C19, dextromethorphan for CYP2D6, midazolam for CYP3A4) are consistent with our previous papers. The substrates were used at concentrations approximately equal to their respective Michaelis-Menten constant (Km) values: 10 μM phenacetin, 5 μM paclitaxel, 5 μM diclofenac, 200 μM S-mephenytoin, 5 μM dextromethorphan, and 2 μM midazolam. NADP^+ was added after a 15 min preincubation of all other components at 37 °C. After a given incubation time (30 min), the reactions were terminated by addition of 60 μL ice-cold acetonitrile containing gemfibrozil and buspirone as internal standards. Incubation samples were stored at −80 °C until used in liquid chromatography-tandem mass spectrometry (LC-MS/MS) analysis. The mixture was centrifuged at 3,500 rpm for 5 min. The supernatant was mixed with equal volume of a 1:1 mixture of methanol and water and 20 μL of the final mixture was used for LC-MS/ MS analysis. […]
(§2) The CYP inhibition potential were evaluated by measuring the formation of one or more metabolites of the test substrates. […]

[2] = molecular target: T2, CYP3A2 (Rattus norvegicus, UniProt P05183); assay: CYP inhibition in rat liver microsomes, substrate cocktail, LC-MS/MS (midazolam); conditions: pH 7.4, probe midazolam 2 μM, read-out: IC50 for RLM, CYP3A2 (table row CYP3A4)
T2 sequence (P05183 1-504): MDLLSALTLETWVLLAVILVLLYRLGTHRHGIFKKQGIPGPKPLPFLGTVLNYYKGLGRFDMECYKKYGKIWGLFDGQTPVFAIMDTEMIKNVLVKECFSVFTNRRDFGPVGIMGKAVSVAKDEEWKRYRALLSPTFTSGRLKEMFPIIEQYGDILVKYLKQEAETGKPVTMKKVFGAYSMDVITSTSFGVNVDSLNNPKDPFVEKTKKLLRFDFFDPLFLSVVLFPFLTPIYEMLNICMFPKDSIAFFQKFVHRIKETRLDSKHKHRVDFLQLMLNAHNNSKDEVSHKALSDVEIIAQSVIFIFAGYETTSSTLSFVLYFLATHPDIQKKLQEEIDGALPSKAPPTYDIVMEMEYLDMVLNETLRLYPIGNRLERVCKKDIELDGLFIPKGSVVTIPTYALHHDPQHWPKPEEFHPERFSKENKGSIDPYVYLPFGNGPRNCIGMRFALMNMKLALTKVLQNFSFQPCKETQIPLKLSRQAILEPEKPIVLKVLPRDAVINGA
Source text: as §1, §2

[3] = molecular target: T3, CYP1A2 (Rattus norvegicus, UniProt P04799); assay: CYP inhibition in rat liver microsomes, substrate cocktail, LC-MS/MS (phenacetin); set-up: Pooled rat liver microsomes were prepared from three male Sprague-Dawley rats; from tissue; host or cells: pooled liver microsomes of three male Sprague-Dawley rats, prepared at HD Biosciences Co; conditions: read-out: IC50 for RLM, CYP1A2
T3 sequence (P04799 1-513): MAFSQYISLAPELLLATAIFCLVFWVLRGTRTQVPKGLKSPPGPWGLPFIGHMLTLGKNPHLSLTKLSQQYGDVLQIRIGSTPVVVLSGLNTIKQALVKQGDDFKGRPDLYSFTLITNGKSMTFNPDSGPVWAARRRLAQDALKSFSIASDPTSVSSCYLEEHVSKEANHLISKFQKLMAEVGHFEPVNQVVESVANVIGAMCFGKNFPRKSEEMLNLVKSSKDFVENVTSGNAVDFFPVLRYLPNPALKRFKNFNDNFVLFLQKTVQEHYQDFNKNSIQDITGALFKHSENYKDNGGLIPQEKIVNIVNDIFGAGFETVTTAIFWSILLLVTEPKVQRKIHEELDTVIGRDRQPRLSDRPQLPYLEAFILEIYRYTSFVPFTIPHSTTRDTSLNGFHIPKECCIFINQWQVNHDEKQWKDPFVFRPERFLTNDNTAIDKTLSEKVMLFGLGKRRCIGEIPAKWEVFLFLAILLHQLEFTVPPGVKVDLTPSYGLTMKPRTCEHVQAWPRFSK
Source text: as §1, §2

O=C(O)[C@H]1O[C@@H](Oc2cc3oc(-c4ccc(O)cc4)cc(=O)c3c(O)c2O)[C@H](O)[C@@H](O)[C@@H]1O [scutellarin, Scutellarin]
> 100 µM: IC50 [1] | IC50 at 30 min [2] | IC50 [3]
